Assays:
IKK_alpha = target: T1, IKK_alpha (Homo sapiens, UniProt O15111); experiment: biochemical; set-up: Invitrogen kinase panel: Z'Lyte activity (ATP at Km) or LanthaScreen competitive ATP-site binding, percent inhibition
T1 construct: gene CHUK

PDGFR_alpha = target: T2, PDGFR_alpha (Homo sapiens, UniProt P16234); experiment: biochemical; set-up: Invitrogen kinase panel: Z'Lyte activity (ATP at Km) or LanthaScreen competitive ATP-site binding, percent inhibition
T2 construct: gene PDGFRA

PKC_alpha = target: T3, PKC_alpha (Homo sapiens, UniProt P17252); experiment: biochemical; set-up: Invitrogen kinase panel: Z'Lyte activity (ATP at Km) or LanthaScreen competitive ATP-site binding, percent inhibition
T3 construct: gene PRKCA

SGK2 = SGK2 (Homo sapiens, UniProt Q9HBY8); experiment: biochemical; set-up: Invitrogen kinase panel: Z'Lyte activity (ATP at Km) or LanthaScreen competitive ATP-site binding, percent inhibition
Sequence of SGK2 (Q9HBY8 whole entry): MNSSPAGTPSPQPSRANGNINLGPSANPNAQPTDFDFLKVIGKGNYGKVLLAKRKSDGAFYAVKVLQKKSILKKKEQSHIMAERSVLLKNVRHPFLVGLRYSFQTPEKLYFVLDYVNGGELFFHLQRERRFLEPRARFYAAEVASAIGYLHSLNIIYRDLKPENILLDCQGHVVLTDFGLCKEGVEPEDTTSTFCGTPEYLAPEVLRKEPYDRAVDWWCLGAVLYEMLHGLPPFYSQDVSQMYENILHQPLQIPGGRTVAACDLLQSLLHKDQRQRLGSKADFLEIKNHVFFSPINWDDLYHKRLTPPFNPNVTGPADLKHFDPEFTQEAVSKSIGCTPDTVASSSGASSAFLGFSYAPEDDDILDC

STK16 = STK16 (Homo sapiens, UniProt O75716); experiment: biochemical; set-up: Invitrogen kinase panel: Z'Lyte activity (ATP at Km) or LanthaScreen competitive ATP-site binding, percent inhibition
Sequence of STK16 (O75716 whole entry): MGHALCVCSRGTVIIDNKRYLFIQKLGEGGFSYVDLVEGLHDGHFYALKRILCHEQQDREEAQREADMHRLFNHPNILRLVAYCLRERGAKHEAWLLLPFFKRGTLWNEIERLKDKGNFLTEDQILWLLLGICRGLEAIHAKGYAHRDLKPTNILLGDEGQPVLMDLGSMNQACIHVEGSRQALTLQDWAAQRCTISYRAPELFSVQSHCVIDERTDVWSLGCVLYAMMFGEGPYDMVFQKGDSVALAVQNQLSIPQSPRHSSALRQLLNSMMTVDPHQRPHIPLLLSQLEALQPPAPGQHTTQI

LTK = LTK (Homo sapiens, UniProt P29376); experiment: biochemical; set-up: Invitrogen kinase panel: Z'Lyte activity (ATP at Km) or LanthaScreen competitive ATP-site binding, percent inhibition
Sequence of LTK (P29376 whole entry): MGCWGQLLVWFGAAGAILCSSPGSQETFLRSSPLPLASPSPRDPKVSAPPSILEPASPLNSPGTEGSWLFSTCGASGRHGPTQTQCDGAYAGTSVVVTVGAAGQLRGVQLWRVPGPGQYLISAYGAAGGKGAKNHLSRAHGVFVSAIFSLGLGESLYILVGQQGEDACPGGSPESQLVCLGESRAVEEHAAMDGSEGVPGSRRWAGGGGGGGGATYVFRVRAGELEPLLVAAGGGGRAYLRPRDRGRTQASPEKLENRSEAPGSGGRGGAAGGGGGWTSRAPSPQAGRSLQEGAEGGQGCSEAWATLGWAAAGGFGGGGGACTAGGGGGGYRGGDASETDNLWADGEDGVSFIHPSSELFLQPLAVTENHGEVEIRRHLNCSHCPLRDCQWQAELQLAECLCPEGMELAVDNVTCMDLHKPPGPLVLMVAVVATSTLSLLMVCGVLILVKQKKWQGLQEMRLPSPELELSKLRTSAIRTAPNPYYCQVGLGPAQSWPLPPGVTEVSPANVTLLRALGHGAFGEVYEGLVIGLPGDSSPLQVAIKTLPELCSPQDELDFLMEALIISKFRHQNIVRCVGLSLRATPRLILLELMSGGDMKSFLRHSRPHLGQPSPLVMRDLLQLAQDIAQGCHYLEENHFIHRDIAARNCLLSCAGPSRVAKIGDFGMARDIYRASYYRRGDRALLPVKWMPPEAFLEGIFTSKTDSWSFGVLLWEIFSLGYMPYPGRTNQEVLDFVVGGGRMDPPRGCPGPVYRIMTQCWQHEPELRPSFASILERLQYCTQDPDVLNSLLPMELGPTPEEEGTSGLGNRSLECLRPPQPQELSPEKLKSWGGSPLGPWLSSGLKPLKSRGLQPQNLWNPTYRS
Description: (§1) We set out to identify allosteric activators of IRE1 RNase by screening internal compound libraries for binding to the kinase, using a published ATP-competitive TR-FRET assay. We then tested kinase binders to assess RNase modulation in an IRE1-specific kinetic RNA cleavage assay that uses the cytoplasmic construct IRE1-LKR (Q470-L977) (Supplementary Fig. 1a). […] Next, we tested these compounds in KMS-11 multiple myeloma cells, known to express functional IRE1 and strongly depend on the IRE1 pathway due to hyper-production of immunoglobulins in the ER[31]. We measured mRNA levels of XBP1s and the well-established RIDD target DGAT2[22] (Fig. 1c and Supplementary Fig. 1c, respectively) using a branched DNA (bDNA) assay. […] Importantly, neither G-9807 nor G-1749 inhibit PERK (Supplementary Table 1).

STK33 = STK33 (Homo sapiens, UniProt Q9BYT3); experiment: biochemical; set-up: Invitrogen kinase panel: Z'Lyte activity (ATP at Km) or LanthaScreen competitive ATP-site binding, percent inhibition
Sequence of STK33 (Q9BYT3 whole entry): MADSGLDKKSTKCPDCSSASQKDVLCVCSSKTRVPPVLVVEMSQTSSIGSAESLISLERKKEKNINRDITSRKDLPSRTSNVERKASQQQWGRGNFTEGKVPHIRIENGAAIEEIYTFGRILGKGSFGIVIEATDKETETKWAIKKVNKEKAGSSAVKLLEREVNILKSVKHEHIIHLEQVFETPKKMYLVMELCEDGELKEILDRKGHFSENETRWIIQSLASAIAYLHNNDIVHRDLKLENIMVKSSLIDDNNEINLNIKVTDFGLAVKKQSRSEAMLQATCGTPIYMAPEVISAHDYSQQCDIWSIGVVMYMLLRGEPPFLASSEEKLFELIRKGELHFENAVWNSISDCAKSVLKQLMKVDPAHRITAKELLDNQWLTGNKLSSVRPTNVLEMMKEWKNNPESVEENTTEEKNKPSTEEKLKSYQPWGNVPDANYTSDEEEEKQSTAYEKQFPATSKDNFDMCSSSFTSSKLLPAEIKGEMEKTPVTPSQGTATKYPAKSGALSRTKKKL
Description: as §1

[1] = target: T4, Inositol-Requiring Enzyme 1 (IRE1) (Homo sapiens, UniProt O75460); experiment: co-crystal structure ([…] Å); also TR-FRET kinase binding, HX-MS, RNase activation; set-up: gene ERN1; IRE1 KR (G547-L977), unphosphorylated (IRE1-0P)
T4 sequence (O75460 547-977): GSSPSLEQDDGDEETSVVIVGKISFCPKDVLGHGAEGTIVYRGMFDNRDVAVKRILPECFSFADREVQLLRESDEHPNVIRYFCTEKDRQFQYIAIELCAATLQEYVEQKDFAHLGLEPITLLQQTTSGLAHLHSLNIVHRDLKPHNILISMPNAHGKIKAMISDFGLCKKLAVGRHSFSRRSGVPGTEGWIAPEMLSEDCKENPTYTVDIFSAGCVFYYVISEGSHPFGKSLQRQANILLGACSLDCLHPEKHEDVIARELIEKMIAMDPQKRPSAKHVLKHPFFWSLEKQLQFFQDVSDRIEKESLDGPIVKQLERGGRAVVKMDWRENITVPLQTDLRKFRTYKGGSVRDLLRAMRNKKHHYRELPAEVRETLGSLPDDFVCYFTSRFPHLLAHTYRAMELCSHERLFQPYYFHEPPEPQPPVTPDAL

Cot = target: T5, Cot (Homo sapiens, UniProt P41279); experiment: biochemical; set-up: Invitrogen kinase panel: Z'Lyte activity (ATP at Km) or LanthaScreen competitive ATP-site binding, percent inhibition
T5 construct: gene MAP3K8

FAK2 = target: T6, FAK2 (Homo sapiens, UniProt Q14289); experiment: biochemical; set-up: Invitrogen kinase panel: Z'Lyte activity (ATP at Km) or LanthaScreen competitive ATP-site binding, percent inhibition
T6 construct: gene PTK2B

Fyn = Fyn (Homo sapiens, UniProt P06241); experiment: biochemical; set-up: Invitrogen kinase panel: Z'Lyte activity (ATP at Km) or LanthaScreen competitive ATP-site binding, percent inhibition
GCK = target: T7, GCK (Homo sapiens, UniProt Q12851); experiment: biochemical; set-up: Invitrogen kinase panel: Z'Lyte activity (ATP at Km) or LanthaScreen competitive ATP-site binding, percent inhibition
T7 construct: gene MAP4K2

PDGFR_beta = target: T8, PDGFR_beta (Homo sapiens, UniProt P09619); experiment: biochemical; set-up: Invitrogen kinase panel: Z'Lyte activity (ATP at Km) or LanthaScreen competitive ATP-site binding, percent inhibition
T8 construct: gene PDGFRB

PKC_iota = target: T9, PKC_iota (Homo sapiens, UniProt P41743); experiment: biochemical; set-up: Invitrogen kinase panel: Z'Lyte activity (ATP at Km) or LanthaScreen competitive ATP-site binding, percent inhibition
T9 construct: gene PRKCI

[2] = target: T4, Inositol-Requiring Enzyme 1 (IRE1); experiment: co-crystal structure ([…] Å); also TR-FRET kinase binding, HX-MS, SV-AUC, RNase activation; set-up: gene ERN1; unphosphorylated IRE1 cytoplasmic kinase-RNase (IRE1-0P)

T1 sequence (O15111 whole entry): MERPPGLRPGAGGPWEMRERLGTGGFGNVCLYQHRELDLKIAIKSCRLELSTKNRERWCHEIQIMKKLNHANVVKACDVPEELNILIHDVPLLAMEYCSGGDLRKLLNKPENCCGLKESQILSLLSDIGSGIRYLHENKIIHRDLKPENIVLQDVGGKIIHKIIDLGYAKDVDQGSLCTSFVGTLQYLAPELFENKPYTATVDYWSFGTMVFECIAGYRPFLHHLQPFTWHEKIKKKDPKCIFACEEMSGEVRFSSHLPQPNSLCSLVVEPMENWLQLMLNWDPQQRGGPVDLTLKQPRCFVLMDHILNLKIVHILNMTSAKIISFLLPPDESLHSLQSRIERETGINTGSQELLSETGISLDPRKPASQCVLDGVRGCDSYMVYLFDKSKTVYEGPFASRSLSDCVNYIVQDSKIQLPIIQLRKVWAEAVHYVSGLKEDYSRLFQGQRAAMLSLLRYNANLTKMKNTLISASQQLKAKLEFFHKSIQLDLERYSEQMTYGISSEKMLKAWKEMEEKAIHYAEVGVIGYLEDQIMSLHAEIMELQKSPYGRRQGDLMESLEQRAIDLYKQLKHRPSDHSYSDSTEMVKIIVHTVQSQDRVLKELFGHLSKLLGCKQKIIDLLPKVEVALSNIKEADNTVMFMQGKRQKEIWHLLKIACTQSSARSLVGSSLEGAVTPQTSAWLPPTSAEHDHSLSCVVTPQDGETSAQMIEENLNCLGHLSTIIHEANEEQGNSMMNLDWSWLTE
T2 sequence (P16234 whole entry): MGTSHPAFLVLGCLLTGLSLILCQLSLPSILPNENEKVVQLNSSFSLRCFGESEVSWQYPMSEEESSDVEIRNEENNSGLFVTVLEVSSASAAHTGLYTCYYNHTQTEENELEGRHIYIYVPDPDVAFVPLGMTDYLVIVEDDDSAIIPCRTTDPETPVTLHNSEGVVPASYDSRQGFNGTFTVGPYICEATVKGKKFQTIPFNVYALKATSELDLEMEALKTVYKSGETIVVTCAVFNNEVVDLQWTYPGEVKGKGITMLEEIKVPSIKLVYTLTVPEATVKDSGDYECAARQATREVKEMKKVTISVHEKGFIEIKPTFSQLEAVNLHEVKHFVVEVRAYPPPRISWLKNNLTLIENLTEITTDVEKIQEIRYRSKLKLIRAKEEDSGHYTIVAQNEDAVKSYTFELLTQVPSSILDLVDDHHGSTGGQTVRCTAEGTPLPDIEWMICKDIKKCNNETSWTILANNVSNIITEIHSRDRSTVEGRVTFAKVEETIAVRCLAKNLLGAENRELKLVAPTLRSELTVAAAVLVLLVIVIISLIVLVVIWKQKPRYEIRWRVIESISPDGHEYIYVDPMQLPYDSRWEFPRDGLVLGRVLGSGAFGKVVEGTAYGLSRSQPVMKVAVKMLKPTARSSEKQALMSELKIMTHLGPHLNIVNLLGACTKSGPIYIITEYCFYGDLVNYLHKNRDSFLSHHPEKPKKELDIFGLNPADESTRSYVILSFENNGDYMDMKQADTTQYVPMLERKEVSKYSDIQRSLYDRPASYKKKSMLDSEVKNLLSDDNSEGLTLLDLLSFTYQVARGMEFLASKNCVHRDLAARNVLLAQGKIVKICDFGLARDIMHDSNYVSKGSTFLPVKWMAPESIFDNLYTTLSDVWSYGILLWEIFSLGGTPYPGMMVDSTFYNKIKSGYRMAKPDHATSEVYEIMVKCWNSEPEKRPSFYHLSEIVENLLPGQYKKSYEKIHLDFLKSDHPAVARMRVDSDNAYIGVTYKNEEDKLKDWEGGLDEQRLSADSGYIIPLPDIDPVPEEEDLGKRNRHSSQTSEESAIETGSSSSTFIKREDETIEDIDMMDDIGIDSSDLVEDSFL

CCOC(=O)Nc1cccc2c(Oc3ncccc3-c3ccnc(N[C@H]4CCCNC4)n3)c(C)ccc12 [G-1749]
inhibition at 1 µM (IKK_alpha): -3.5%
inhibition at 1 µM (PDGFR_alpha): -3.5%
inhibition at 1 µM (PKC_alpha): 1.5%
inhibition at 1 µM (SGK2): 3.5%
inhibition at 1 µM (STK16): -5.5%
inhibition at 1 µM (LTK): 1%
inhibition at 1 µM (STK33): -4%
IC50 [1]: low-nanomolar

CC#CC(=O)Nc1cccc2c(Oc3ncccc3-c3ccnc(N[C@H]4CCCNC4)n3)c(C)ccc12 [G-7658]
inhibition at 1 µM (IKK_alpha): -2%
inhibition at 1 µM (PDGFR_alpha): -0.5%
inhibition at 1 µM (PKC_alpha): 4%
inhibition at 1 µM (SGK2): 1.5%
inhibition at 1 µM (STK16): -9%
inhibition at 1 µM (LTK): -4.5%
inhibition at 1 µM (STK33): -3.5%

O=c1cc(-c2n[nH]c3ncc(-c4c(F)cccc4F)cc23)nc(N2CCC(O)CC2)[nH]1 [G-9807]
inhibition at 1 µM (Cot): 94%
inhibition at 1 µM (FAK2): 79.6%
inhibition at 1 µM (Fyn): 76.2%
inhibition at 1 µM (GCK): 95.7%
inhibition at 1 µM (PDGFR_beta): 80.4%
inhibition at 1 µM (PKC_iota): 46.6%
IC50 [2]: low-nanomolar

From PMC7736581, “Activation of the IRE1 RNase through remodeling of the kinase front pocket by ATP-competitive ligands” (Nature Communications, 2020)
